Test results reported in US7189732B2, “Pyrido[2,3-d]pyrimidine dichloro-phenyl derivatives” (Hoffman-La Roche Inc., priority 2004, dated 2007).

Assays:
Src (p60^c-src) = target: T1, Src (p60^c-src) (Homo sapiens, UniProt P12931); experiment: SRC-Inhibitor-Assay, time-resolved fluorescence kinase assay (Src); assay type: biochemical; details: ATP 5 μM; peptide 10 μM; enzyme 2.5 U/ml; pre-incubated 15 min at 15° C.
T1 construct: purchased Upstate Biotechnology, Inc., Lake Placid, N.Y. (UBI)
Text: (§1) The activity of the compounds according to this invention as inhibitors for the src-family tyrosine kinases was shown by using the following assay. As used herein Ro refers to the peptide: NH2-A-E-E-E-I-Y-G-E-F-E-A-K-K-K-K-CONH2(SEQ ID NO: 1); Ja133-Ro refers to the peptide: Ja133-G-Aminocaprylic acid-A-E-E-E-I-Y-G-E-F-E-A-K-K-K-K-CONH2(SEQ ID NO: 2), wherein Ja133 is LightCycler-Red 640-N-hydroxy succinimide ester; PT66 refers to a phosphotyrosine specific antibody which can detect the phoyphorylated tyrosine of protein tyrosine kinase; and TCEP refers to Tris(2-carboxyethyl)phosphine; Lck Cisbio Mab PT66-K refers to Anti-Phosphotyrosine (PT66)-Cryptate; and Src EG&G Wallac PT66 Eu-W1024 refers to Eu^3+-labelled Anti-Phosphotyrosine (PT66)-Cryptate.
(§2) whereby both peptides were synthesized by an optimized solid phase peptide synthesis protocol (Merrifield, Fed. Proc. Fed. Amer. Soc. Exp. Biol. 21(1962) 412) on a Zinsser SMP350 peptide synthesizer. Shortly, the peptide was assembled on 160 mg (22.8 μmol scale) of a Rink-Linker modified polystyrene solid phase by repeatedly conjugating an twenty fold excess of amino acids each protected by temporary piperidine labile Fmoc- and permanent acid labile tert-Bu-, BOC- and tert-BuO-groups depending on the side chain function. The substrate sequence AEEEIYGEFEAKKKK (SEQ ID NO: 1) was N-terminal additionally mounted with the spacer amino acids Aminocaprylic acid and Glycin. After cleavage of the N-terminal temporary protecting group the still attached and protected peptide was labeled with a 1.5 fold amount of LightCycler-Red 640-N-hydroxy succinimide ester (purchased by Roche Diagnostics GmbH) and triethylamine. After 3 hrs. the resin was washed with Dimethylformamide and Isopropanol until the eluates of the blue resin got colorless. […] The substrate was finally isolated by a preparative reverse phase HPLC purification. The purification yielded 12.2 mg RP-HPLC single peak pure blue material (lyophilisate). The identity was proven by Matrix Assisted Laser Desorption Ionization (MALDI) mass spectroscopy [2720.0]. Enzymes: Upstate Lck (p56^lck, active), Upstate Src (p60^c-src, partially purified) were purchased from Upstate Biotechnology, Inc., Lake Placid, N.Y. (UBI). Time-resolved Fluorescence Assay: Reader: Perkin Elmer, Wallac Viktor 1420-040 multilabel counter; Liquid handling system: Beckman Coulter, Biomek 2000. ATP, Tween 20, HEPES were purchased from Roche Molecular Biochemicals, MgCl2 and MnCl2 were purchased from Merck Eurolab, TCEP was purchased from Pierce, 384 Well low volume fluorescence plates was purchased from Falcon. Assay Description:
(§3) At first the enzyme is pre-incubated for 15 min. at 15° C. in aqueous solution with corresponding amounts of inhibitors according to this invention. Then the phosphorylation reaction is started by adding a reaction mixture, containing ATP, Peptide and PT66, and subsequent shaking. The proceeding of this reaction is immediately monitored using time resolved fluorescence spectroscopy in a suitable well plate reader.
(§4) The IC50-values can be obtained from the reaction rates by using a non-linear curve fit (EXCELFIT software, from ID Business Solution Ltd., Guilford, Surrey, UK).

Lck (p56^lck) = target: T2, Lck (p56^lck) (Homo sapiens, UniProt P06239); experiment: SRC-Inhibitor-Assay, time-resolved fluorescence kinase assay (Lck); assay type: biochemical; details: ATP 5 μM; peptide 10 μM; enzyme 2.5 U/ml; pre-incubated 15 min at 15° C.
T2 construct: purchased Upstate Biotechnology, Inc., Lake Placid, N.Y. (UBI)
T2 sequence (P06239 whole entry, species assumed): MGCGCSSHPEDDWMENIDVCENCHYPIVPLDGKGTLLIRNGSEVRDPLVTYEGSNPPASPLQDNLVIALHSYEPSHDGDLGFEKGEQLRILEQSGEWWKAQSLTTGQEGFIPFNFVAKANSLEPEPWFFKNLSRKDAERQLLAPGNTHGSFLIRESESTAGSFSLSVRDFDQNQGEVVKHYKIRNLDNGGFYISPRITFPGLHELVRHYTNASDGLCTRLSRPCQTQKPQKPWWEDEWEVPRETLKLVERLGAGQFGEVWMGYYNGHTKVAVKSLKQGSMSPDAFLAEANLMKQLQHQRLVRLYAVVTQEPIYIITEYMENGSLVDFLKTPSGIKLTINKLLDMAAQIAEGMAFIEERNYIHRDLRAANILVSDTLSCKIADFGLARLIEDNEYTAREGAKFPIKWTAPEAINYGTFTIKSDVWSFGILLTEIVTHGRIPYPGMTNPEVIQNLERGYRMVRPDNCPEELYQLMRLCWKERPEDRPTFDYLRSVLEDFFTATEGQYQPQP
Text: as §1, §2, §3, §4

T1 sequence (P12931 whole entry): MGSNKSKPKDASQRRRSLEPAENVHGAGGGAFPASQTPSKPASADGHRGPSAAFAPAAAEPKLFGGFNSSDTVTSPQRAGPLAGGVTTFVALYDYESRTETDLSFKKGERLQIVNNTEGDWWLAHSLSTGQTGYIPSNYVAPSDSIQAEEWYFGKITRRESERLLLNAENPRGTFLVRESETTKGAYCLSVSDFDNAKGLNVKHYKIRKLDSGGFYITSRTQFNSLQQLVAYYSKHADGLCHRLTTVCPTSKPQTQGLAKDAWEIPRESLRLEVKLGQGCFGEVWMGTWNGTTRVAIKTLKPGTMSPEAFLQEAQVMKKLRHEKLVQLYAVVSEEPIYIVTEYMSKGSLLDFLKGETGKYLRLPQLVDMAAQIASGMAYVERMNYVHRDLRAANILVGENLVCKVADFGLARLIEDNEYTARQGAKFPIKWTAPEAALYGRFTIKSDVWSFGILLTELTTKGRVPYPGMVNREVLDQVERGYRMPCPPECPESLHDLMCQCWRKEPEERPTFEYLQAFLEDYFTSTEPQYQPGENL

Structure (SMILES)	IC50 (Src (p60^c-src))	IC50 (Lck (p56^lck))
O=C(NC[C@H]1CCCN1)c1nc2nc(Nc3ccc(N4CCOCC4)cc3)ncc2cc1-c1c(Cl)cccc1Cl [Example 1, 6-(2,6-Dichloro-phenyl)-2-(4-morpholin-4-yl-phenylamino)-pyrido[2,3-d]pyrimidine-7-carboxylic acid ((R)-1-pyrrolidin-2-ylmethyl)-amide]	0.4 nM	1.7 nM
N#Cc1nc2nc(Nc3ccc(OCCO)cc3)ncc2cc1-c1c(Cl)cccc1Cl [Example 4, 6-(2,6-Dichloro-phenyl)-2-[4-(2-hydroxy-ethoxy)-phenylamino]-pyrido[2,3-d]pyrimidine-7-carbonitrile]	1.7 nM	6.4 nM
CN1CCN(c2ccc(Nc3ncc4cc(-c5c(Cl)cccc5Cl)c(C(=O)NCCNS(C)(=O)=O)nc4n3)cc2)CC1 [Example 2, 6-(2,6-Dichloro-phenyl)-2-[4-(4-methyl-piperazin-1-yl)-phenylamino]-pyrido[2,3-d]pyrimidine-7-carboxylic acid (2-methanesulfonylamino-ethyl)-amide]	0.3 nM	1 nM
NC(=O)c1nc2nc(Nc3ccc(OCCO)cc3)ncc2cc1-c1c(Cl)cccc1Cl [Example 5, 6-(2,6-Dichloro-phenyl)-2-[4-(2-hydroxy-ethoxy)-phenylamino]-pyrido[2,3-d]pyrimidine-7-carboxylic acid amide]	2.2 nM	7.6 nM
CS(=O)(=O)NCCNC(=O)c1nc2nc(Nc3cccc(SCCO)c3)ncc2cc1-c1c(Cl)cccc1Cl [Example 3, 6-(2,6-Dichloro-phenyl)-2-[3-(2-hydroxy-ethylsulfanyl)-phenylamino]-pyrido[2,3-d]pyrimidine-7-carboxylic acid (2-methanesulfonylamino-ethyl)-amide]	0.7 nM	2 nM

The next lines start with the values.

IC50 (Src (p60^c-src))	IC50 (Lck (p56^lck))	Structure (SMILES)
2.5 nM	9.9 nM	CSc1cccc(Nc2ncc3cc(-c4c(Cl)cccc4Cl)c(C(=O)NCCNS(C)(=O)=O)nc3n2)c1 [Example 6-7, 6-(2,6-Dichloro-phenyl)-2-(3-methylsulfanyl-phenylamino)-pyrido[2,3-d]pyrimidine-7-carboxylic acid (2-methanesulfonylamino-ethyl)-amide]
5.4 nM	8.2 nM	O=C(NCCO)c1nc2nc(Nc3ccc(OCCO)cc3)ncc2cc1-c1c(Cl)cccc1Cl [Example 6-1, 6-(2,6-Dichloro-phenyl)-2-[4-(2-hydroxy-ethoxy)-phenylamino]-pyrido[2,3-d]pyrimidine-7-carboxylic acid (2-hydroxy-ethyl)-amide]
0.6 nM	1.7 nM	O=C(NC[C@H]1CCCN1)c1nc2nc(Nc3ccc(OCCO)cc3)ncc2cc1-c1c(Cl)cccc1Cl [Example 6-5, 6-(2,6-Dichloro-phenyl)-2-[4-(2-hydroxy-ethoxy)-phenylamino]-pyrido[2,3-d]pyrimidine-7-carboxylic acid ((R)-1-pyrrolidin-2-ylmethyl)-amide]
1 nM	3.7 nM	NC(=O)c1nc2nc(Nc3ccc(N4CCOCC4)cc3)ncc2cc1-c1c(Cl)cccc1Cl [Example 8-1, 6-(2,6-Dichloro-phenyl)-2-(4-morpholin-4-yl-phenylamino)-pyrido[2,3-d]pyrimidine-7-carboxylic acid amide]
1.1 nM	1.6 nM	CS(=O)(=O)NCCNC(=O)c1nc2nc(Nc3ccc(OCCO)cc3)ncc2cc1-c1c(Cl)cccc1Cl [Example 6-4, 6-(2,6-Dichloro-phenyl)-2-[4-(2-hydroxy-ethoxy)-phenylamino]-pyrido[2,3-d]pyrimidine-7-carboxylic acid (2-methanesulfonylamino-ethyl)-amide]
0.2 nM	1.3 nM	CS(=O)(=O)NCCNC(=O)c1nc2nc(Nc3cccc(NS(C)(=O)=O)c3)ncc2cc1-c1c(Cl)cccc1Cl [Example 6-6, 6-(2,6-Dichloro-phenyl)-2-(3-methanesulfonylamino-phenylamino)-pyrido[2,3-d]pyrimidine-7-carboxylic acid (2-methanesulfonylamino-ethyl)-amide]
1.3 nM	11.7 nM	N#Cc1nc2nc(Nc3ccc(N4CCOCC4)cc3)ncc2cc1-c1c(Cl)cccc1Cl [Example 7-2, 6-(2,6-Dichloro-phenyl)-2-(4-morpholin-4-yl-phenylamino)-pyrido[2,3-d]pyrimidine-7-carbonitrile]
1.8 nM	4.1 nM	O=C(NCCO)c1nc2nc(Nc3ccc(N4CCOCC4)cc3)ncc2cc1-c1c(Cl)cccc1Cl [Example 6-2, 6-(2,6-Dichloro-phenyl)-2-(4-morpholin-4-yl-phenylamino)-pyrido[2,3-d]pyrimidine-7-carboxylic acid (2-hydroxy-ethyl)-amide]
4.7 nM	7.8 nM	Cc1ccc(Nc2ncc3cc(-c4c(Cl)cccc4Cl)c(C(=O)NCCNS(C)(=O)=O)nc3n2)cn1 [Example 6-8, 6-(2,6-Dichloro-phenyl)-2-(6-methyl-pyridin-3-ylamino)-pyrido[2,3-d]pyrimidine-7-carboxylic acid (2-methanesulfonylamino-ethyl)-amide]
0.5 nM	2.7 nM	CCN(CC)CCOc1ccc(Nc2ncc3cc(-c4c(Cl)cccc4Cl)c(C#N)nc3n2)cc1 [Example 7-1, 6-(2,6-Dichloro-phenyl)-2-[4-(2-diethylamino-ethoxy)-phenylamino]-pyrido[2,3-d]pyrimidine-7-carbonitrile]
0.9 nM	1.5 nM	CS(=O)(=O)NCCNC(=O)c1nc2nc(Nc3ccc(N4CCOCC4)cc3)ncc2cc1-c1c(Cl)cccc1Cl [Example 6-3, 6-(2,6-Dichloro-phenyl)-2-(4-morpholin-4-yl-phenylamino)-pyrido[2,3-d]pyrimidine-7-carboxylic acid (2-methanesulfonylamino-ethyl)-amide]
